Here are results for 3 molecules from patent US8809354B2, “3-amino-2-(4-nitrophenyl)-4-(3H)-quinazolinone or derivatives thereof for treating or preventing antiviral infections” (priority 2011, dated 2014).

In series [1] the test system is HCV sub-genomic replicon in FCA 4 cells. It is filed as cell-based, hepatitis C virus. The text has this: FCA-4 sub genomic replicon was bicistronic construct composed of the HCV IRES (nucleotides 1 to 377 of the 5′NCR); the neomycin phosphotransferase (neo) gene; the encephalomyocarditis IRES, which mediates the translation of HCV nonstructural proteins NS3 through NS5; and the 3′NCR as shown in FIG. 2. […] FCA-4 sub-genomic replicon consists of single adaptive mutation and a deletion of a serine residue at position 1176 (Guo et al, 2001).
The bicistronic RNA molecule contains the HCV IRES and a few core-coding sequences, which are followed by neomycin phosphotransferase gene (Neor). These sequences are followed by the encephalomyocarditis virus IRES placed in front of HCV sequences encoding nonstructural protein NS3 to NS5B, terminating at the HCV 3NCR.
To determine the antiviral effect against HCV, FCA 4 cells were seeded in six well plates. After 24 h, media containing 20 μM of test compound was added to the plates. Cells were incubated at 37° C. in CO2 incubator for additional 48 h. At the end of the incubation, cells were harvested, RNA was extracted and cDNA were generated by oligo dT priming. cDNA was amplified by PCR using primers specific to the 5′UTR and NS5B gene of HCV. Amplification of GAPDH mRNA served as an internal control. […]

For series [2], the system named is HCV 3a genotype in MDBK cells. Kind of series: Synergy with interferon-α against HCV in MDBK cells (real time Quantitative RT-PCR). Type of series: cell-based, hepatitis C virus. To be noted: with interferon-α 5 IU/well, 6 hrs pre-incubation, HCV 3a 2×10^4 copies per well, 18 hrs. Here is the method: Surprising synergism was recorded when Compound 1 was combined with Interferon alpha. […] MDBK cells were incubated for 6 hrs with compounds and interferon alone, or combination of compound and interferon in a 96-well plat. After 6 hrs cells were infected with 2×10^4 copies of HCV 3a genotype per well and incubated for additional 18 hrs. At the end of incubation period, total RNA was extracted by Gentra kit, and the levels of HCV RNA remaining were determined, by real time Quantitative RT-PCR assay and are shown as percentage of HCV RNA survival in cells. Results are represented as the average and standard error for three independent experiments.

The test system of another series is HCV. As to conditions: Ribavirin alone, cited from earlier work.
For the next series, the target named is HCV protease (Hepatitis C virus genotype 1a, UniProt P26664). As to conditions: SDS-PAGE and autoradiography assay; cited from earlier work.
Chain of HCV protease (P26664 1027-1657): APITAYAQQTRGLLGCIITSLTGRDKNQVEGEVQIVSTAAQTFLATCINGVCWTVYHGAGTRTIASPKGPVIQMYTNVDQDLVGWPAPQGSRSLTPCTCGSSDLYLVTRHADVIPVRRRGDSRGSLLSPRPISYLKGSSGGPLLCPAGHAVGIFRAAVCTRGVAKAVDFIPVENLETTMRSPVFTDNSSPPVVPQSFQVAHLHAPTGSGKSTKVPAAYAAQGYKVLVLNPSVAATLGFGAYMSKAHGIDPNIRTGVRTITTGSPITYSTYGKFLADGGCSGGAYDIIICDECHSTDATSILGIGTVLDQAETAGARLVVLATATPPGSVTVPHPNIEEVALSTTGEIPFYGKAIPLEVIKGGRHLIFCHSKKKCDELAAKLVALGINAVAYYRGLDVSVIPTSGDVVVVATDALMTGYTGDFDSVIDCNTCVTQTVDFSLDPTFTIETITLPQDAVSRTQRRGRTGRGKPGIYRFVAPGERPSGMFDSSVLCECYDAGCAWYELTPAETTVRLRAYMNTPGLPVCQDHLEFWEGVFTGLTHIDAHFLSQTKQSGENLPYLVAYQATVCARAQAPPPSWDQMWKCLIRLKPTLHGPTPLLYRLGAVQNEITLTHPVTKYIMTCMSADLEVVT

With `Nn1c(-c2ccc([N+](=O)[O-])cc2)nc2ccccc2c1=O` [Compound 1, 3-amino-2-(4-nitrophenyl)-4-(3H)-quinazolinone], in series [1], the “Cytotoxicity in relation to antiviral suppression” value was “independent of cytotoxicity”. Moreover, the “HCV RNA expression” value in series [1] (20 μM, 48 h, PCR with primers for 5′UTR and NS5B) was “inhibited HCV RNA expression significantly”. Also, in series [2], the “Antiviral activity in combination with interferon-α (HCV RNA survival)” value is recorded as “synergistic effect”.
Turning to `NC(=O)c1ncn([C@@H]2O[C@H](CO)[C@@H](O)[C@H]2O)n1` [Ribavirin, 1-β-D-ribofuranosyl-1-1,2,4-triazole-3-carboxamide], the “Serum levels of HCV-RNA” value in the series on HCV (patients) was “does not lower”. Also, in the series on HCV, the “Patients in whom serum amino transferase levels are reduced to normal” value was 40%.
On to `CCCC(=O)c1cc2c(c(O)c1C)C(=O)C(=O)c1c(O)cccc1-2` [Sch 68631], for which, on HCV protease, the “Activity against HCV protease” value is given as “micromolar activity”.
